Reference: US12527741B2, “Modular dendron micelles for treatment of pulmonary diseases related to fibrosis and viral infection including COVID-19” (priority 2021, dated 2026)
Where no end group is shown, it is not given here.

Assays:
[1] = tested on: MCF-7 cells; test: Binding to cells with low PD-L1 expression; assay type: cell-based
Text: (§1) (SEQ ID NO: 5), optimized from the literature.

[2] = tested on: 7860 cells; test: Binding to high PD-L1 expressing cells; assay type: cell-based; details: fluorescence
Text: as §1

[3] = target: PD-L1 (Homo sapiens, UniProt Q9NZQ7); details: SPR
Sequence of PD-L1 (Q9NZQ7 19-290): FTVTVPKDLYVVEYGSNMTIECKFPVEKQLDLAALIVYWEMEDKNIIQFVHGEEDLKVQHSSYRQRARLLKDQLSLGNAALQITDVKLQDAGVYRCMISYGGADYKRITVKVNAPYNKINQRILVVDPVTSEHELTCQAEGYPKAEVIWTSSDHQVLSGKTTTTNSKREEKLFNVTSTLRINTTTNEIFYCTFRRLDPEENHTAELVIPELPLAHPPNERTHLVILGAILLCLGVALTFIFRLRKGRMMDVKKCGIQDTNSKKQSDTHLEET

[4] = tested on: idiopathic pulmonary fibrosis; details: IPF patients; cited from earlier work
[5] = target: BRD4 BD2 domain (Homo sapiens, UniProt O60885); test: Binding affinity to BRD4 BD2
Text: (§2) BRD4 is a member of the bromodomain and extraterminal (BET) protein family, containing two conserved bromodomains (BD). The BD is a high-affinity binding pocket for BRD4 binding to acetylated Lys residues on histones and transcription factors critical for histone acetyltransferase (HAT) activity. Small molecule BRD4 inhibitors that interact with the BRD4 BD inhibit BRD4 function by displacing BRD4 from genome binding sites, disrupting coactivator binding, and inhibiting its atypical HAT activity. A major limitation of pharmacological approaches to modifying BRD4 is that available inhibitors have poor selectivity for BRD isoforms. A third generation BRD4 inhibitor (BRD4i) with high selectivity for the BRD4 BD1 domain has been identified. This compound, ZL0591, binds with approximately 100 nM affinity to BRD4 BD1, but has 10× lower affinity for the BRD4 BD2 domain, and similarly has low affinity for BRD3.

[6] = target: BRD4 BD1 (Homo sapiens, UniProt O60885); test: Binding affinity to BRD4 BD1
Text: as §2

[7] = tested on: Bleomycin-induced fibrosis; test: Bleomycin-induced pulmonary fibrosis, therapeutic dosing; assay type: in vivo, mice
[8] = target: BRD3 (Homo sapiens, UniProt Q15059); test: Binding affinity to BRD3
Sequence of BRD3 (Q15059 whole entry, species assumed): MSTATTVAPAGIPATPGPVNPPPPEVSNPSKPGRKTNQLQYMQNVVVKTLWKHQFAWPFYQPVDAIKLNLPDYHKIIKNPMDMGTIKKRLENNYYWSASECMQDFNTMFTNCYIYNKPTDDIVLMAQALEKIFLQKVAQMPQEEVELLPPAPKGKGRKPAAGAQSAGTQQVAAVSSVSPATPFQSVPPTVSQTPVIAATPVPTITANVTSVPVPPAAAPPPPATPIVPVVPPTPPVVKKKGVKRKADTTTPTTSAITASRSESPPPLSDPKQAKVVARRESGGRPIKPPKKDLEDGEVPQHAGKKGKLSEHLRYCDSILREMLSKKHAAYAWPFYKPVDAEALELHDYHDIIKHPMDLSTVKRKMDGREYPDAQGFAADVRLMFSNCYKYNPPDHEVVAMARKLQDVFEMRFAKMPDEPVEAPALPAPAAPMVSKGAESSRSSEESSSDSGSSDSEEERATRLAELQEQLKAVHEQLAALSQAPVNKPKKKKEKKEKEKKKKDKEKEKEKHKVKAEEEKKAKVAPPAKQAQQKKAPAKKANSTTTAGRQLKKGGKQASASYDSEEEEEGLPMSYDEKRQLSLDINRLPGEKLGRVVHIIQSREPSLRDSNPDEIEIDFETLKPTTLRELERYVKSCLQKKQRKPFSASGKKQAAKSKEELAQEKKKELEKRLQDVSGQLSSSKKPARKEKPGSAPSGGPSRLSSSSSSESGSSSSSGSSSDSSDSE
Text: as §2

[9] = Intravenous half-life; assay type: in vivo
[10] = tested on: TGFβ-induced NOX4/SM22α/FN1 expression; test: TGFβ-induced myofibroblast transition, Q-RT-PCR of NOX4, SM22α and FN1; assay type: cell-based
[11] = tested on: fibroblast contractility; assay type: cell-based; details: TGFβ-induced
[12] = tested on: BRD isoforms; assay type: binding; details: data not shown
[13] = Drug loading and encapsulation efficiency of PCL14K-DMs; assay type: physicochemical; details: initial loading 20% wt, Dialysis
[14] = Hydrophobicity (log P) of BRD4 inhibitors; assay type: physicochemical

G7-pPD1: PD-L1-binding peptide pPD-1 conjugated to G7 PAMAM dendrimers (HVVWHRESPSGQTDTLAA; also: conjugated to G7 PAMAM dendrimers, site not given here)
Interaction with low PD-L1 expression cells [1]: lack of observed interactions
Binding to PD-L1 expressing cells [2]: selective binding
Binding to PD-L1 expressing cells ([2]; listed as dendrimer-pPD-1): specific interaction
KD compared with full antibody (aPD-L1) [3]: comparable

Cc1ccc(=O)n(-c2ccccc2)c1 [pirfenidone]
Decrease/loss of forced vital capacity (FVC) [4]: slows
Progression-free survival [4]: improves

COC(=O)c1ccc2c(c1)NC(=O)/C2=C(\Nc1ccc(N(C)C(=O)CN2CCN(C)CC2)cc1)c1ccccc1 [Nintedanib, nintedanib]
Decrease/loss of forced vital capacity (FVC) [4]: efficacy was shown

O=C(Nc1ccc(C(F)(F)F)cc1)Nc1ccc(S(=O)(=O)N2CCC[C@H]2CN2CCC(O)CC2)cc1 [ZL0591]
Lower affinity for BRD4 BD2 domain relative to BD1 [5]: 10 ×
Kd [6]: ~100 nM
Pulmonary collagen content (hydroxyproline in total lung homogenates) ([7]; 10 mg/kg/dose systemic (IP), started 14 d after bleomycin, 14 d of treatment): significantly reduced
Blood oxygen saturation ([7]; bleomycin- and BRD4 inhibitor-treated vs controls): increase
Alveolar consolidation and fibrotic pattern (Massons Trichrome) ([7]; fixed lung sections): substantially reduced
Modified Ashcroft indices ([7]; scored by independent pathologist): reduction in Ashcroft indices was statistically significant
Lung density by microCT ([7]; vs bleomycin treated only): reduction
Affinity for BRD3 [8]: low affinity
Intravenous T1/2 [9]: 11.8 h

Cc1sc2c(c1C)C(c1ccc(Cl)cc1)=N[C@@H](CC(=O)OC(C)(C)C)c1nnc(C)n1-2 [JQ1]
FN1 expression [10]: effectively blocked
NOX4 expression [10]: effectively blocked
SM22α expression [10]: effectively blocked
Contractility (retraction of collagen plugs) [11]: effectively inhibited
Discrimination between BRD isoforms [12]: no discrimination

COc1cc(OC)c2c(=O)cc(-c3cc(C)c(OC[C@H](O)CN4CCN(C)CC4)c(C)c3)oc2c1 [ZL0516]
Drug Loading % [13]: 0.70 ± 0.17%
Encapsulation Efficiency % [13]: 2.52 ± 0.17%
log P [14]: 2.89
